Data published in patent US20110190199A1, “Combination Therapy for Tuberculosis” (priority 2008, published 2011).
Values after ≈ are worked out from the molar mass of the structure shown. Values joined by “and” are separate entries in the source; they are usually repeats but may differ in a detail not shown here. Equal entries are not always repeated. Where two headings read alike, the source gives them in different places.

What was measured:
[1] = Single-dose and steady-state serum pharmacokinetics in the murine model; format: in vivo, mice
Procedure: To determine the single-dose and steady-state pharmacokinetic profiles of the compound of formula (I) and LZD in the murine model, a sub-study was nested in the above dose-ranging study using mice treated with the compound of formula (I) at 100 mg/kg once-daily or LZD at 130 mg/kg once- or twice-daily. Three mice per group were sacrificed at 0.5, 1, 2, 4, 8 and 24 hours after the first dose of treatment (D1) and at the aforementioned time points with the addition of a 9 hour time point (i.e., 1 hour after the second daily dose) on Day 24 (D24) of treatment. Mice were anesthetized with chloroform and exsanguinated by cardiac puncture. Whole blood was collected on ice and then centrifuged to obtain serum. Acetonitrile was added to the samples before storage in gasketed screwcap tubes at −20° C. D24 samples were collected and processed in the same manner and stored at −20° C. before being sent together with D1 samples to Pfizer (Groton, Conn.) for determination of drug concentrations. The supernatant was injected (10 μL injection volume) onto the LC (Shimadzu SCL-10A, Kyoto, Japan)-MS/MS (Sciex API 3000, Applied Biosystems Group, Foster City, Calif.) using a Hypersil C18 column (5 μm, 50×2.1 mm, Thermo Electron Corp, Waltham, Mass.) and a step gradient consisting of a mobile phase of A: water with 0.05% 5 mM ammonium formate and B: acetonitrile/water/5 mM ammonium formate (80:20:0.05%). The ionization was electrospray positive ion mode. Bioanalytical data were captured using Analyst (Version 1.4.1, Applied Biosystems Group, Foster City, Calif.). Pharmacokinetic calculations were based on mean serum concentrations and performed using the non-compartmental approach (linear trapezoidal rule for AUC calculation with the aid of Watson 7.2 Bioanalytical LIMS [Thermo Electron Corp, Waltham, Mass.)). […] Concentrations of 0 were used for kinetic calculations for all results below the lower limit of quantitation (5 ng/mL).

[2] = system: Mycobacterium tuberculosis H37Rv; format: in vivo, mice
[3] = system: Mycobacterium tuberculosis; conditions: cited from earlier work
[4] = 600-625 mg by mouth twice daily; cited from earlier work
[5] = system: Mycobacterium tuberculosis H37Rv; experiment: MIC by agar dilution on Middlebrook 7H11 agar; format: cell-based; conditions: 672 h, 7H11 agar + 10% OADC, 28 days at 37°C, lowest concentration to inhibit at least 99% of bacterial growth
[6] = system: Mycobacterium tuberculosis H37Rv; experiment: Example 6: in vivo activity of the combination (lung CFU after 4 and 8 weeks); set-up: species or system mice
M. tuberculosis H37Rv = experiment: Example 9: compound of formula I added to first and second line anti-tuberculosis drugs (survival, lung CFU after 4 weeks); format: in vivo, mice; conditions: D0 8.36 ± 0.10
[7] = system: Mycobacterium tuberculosis H37Rv; experiment: Example 8C: additional dose ranging study (4 and 8 weeks); format: in vivo, mice; conditions: lung
Procedure: The protocol described above in Example 8A and 8B was carried out on an alternative occasion. The only substantive changes were the number of animals per group and the initial incubation period.
Testing continued for an additional 4 weeks with 60 of the mice from Test Group 2 immediately above. The mice either received U alone, at varying doses, or the combination of U and R. The following results were obtained.

[8] = system: Mycobacterium tuberculosis H37Rv; experiment: Example 8B: eight week dose ranging study (second phase after 4 weeks RHZU25); format: in vivo, mice; set-up: Lung CFU / CFU-U only: unit not given here; conditions: for effect of U monotherapy against persisting tubercle bacilli / log reduction with U monotherapy against persisting tubercle bacilli: 4 weeks after initial 4 weeks of RHZU25; for CFU-U only: lung
Procedure: Eighty of the mice from Group 4 (in Example 8A) that had been receiving 25 mg/kg of the compound of formula I (U) along with rifampin(R), isoniazid(H), and pyrazinamide(Z) were evaluated in the second phase of the study. They were assigned to one of the groups described below in Table 6 and the study was continued for an additional 4 weeks (i.e. 8 week results).
As described above, 5 animals served as the control and no further drugs were given. Five were given the combination of rifampin(R) and isoniazid (H), five given isoniazid (H) or rifampin(R) alone. […] Six of these groups were also dosed with rifampin (R). The rifampin and isoniazid was dosed in the same manner and in the same amount as in Example 8A.
At the conclusion of the eight (8) week experiment, all of the animals were sacrificed and CFU lung counts were obtained.

[9] = Mycobacterium tuberculosis, literature
[10] = labelled regimen PLUS compound of formula (I) 100 mg/kg/day, INH 25, RIF 10, PZA 150, MXF 100 mg/kg, Day 0 7.37 ± 0.12
[11] = regimen as labelled, INH 25, RIF 10, PZA 150, MXF 100, compound of formula (I) 100 mg/kg, Day 0 7.37 ± 0.12

CC(=O)NC[C@H]1CN(c2ccc(N3CCOCC3)c(F)c2)C(=O)O1 [LZD, linezolid]
Cmax higher than that obtained in humans ([1]; 100 mg/kg dose in the mouse, based on linear kinetics): approximately 3 times
steady state AUC higher than anticipated steady state AUC in humans ([1]; mouse 130 mg/kg daily vs humans 600-625 mg twice daily): approximately 50%
AUC(0-t) ([1]; mouse, serum, po, 130 mg/kg, serum, Day 1, LZD 130 mg/kg daily oral, read-out: AUC0-24): 164 µg·h/mL
Cmax ([1]; mouse, serum, po, 130 mg/kg, serum, Day 1, LZD 130 mg/kg daily oral, read-out: Cmax): 64.9 µg/mL
AUC(0-t) ([1]; mouse, serum, po, 130 mg/kg, serum, Day 24, LZD 130 mg/kg daily oral, read-out: AUC0-24 (steady state AUC)): 379 µg·h/mL
Cmax ([1]; mouse, serum, po, 130 mg/kg, serum, Day 24, LZD 130 mg/kg daily oral, read-out: Cmax): 58.4 µg/mL
log kill (reduction in mean lung CFU count compared to the baseline value) ([2]; mouse, in vivo): 1.46 log10
mean spleen weight ([2]; mouse, in vivo): 200 ± 47 mg and 102 ± 5 mg and 190 ± 52 mg
Mean log10 CFU count (± SD) on Day 28 ([2]; mouse, in vivo, 25 mg/kg): 7.55 ± 0.24 log10 CFU
Mean log10 CFU count (± SD) on Day 28 ([2]; mouse, in vivo, 50 mg/kg): 7.33 ± 0.11 log10 CFU
Mean log10 CFU count (± SD) on Day 28 ([2]; mouse, in vivo, 100 mg/kg): 6.75 ± 0.14 log10 CFU
Mean log10 CFU count (± SD) on Day 28 ([2]; mouse, in vivo, 260 mg/kg): 6.03 ± 0.12 log10 CFU
MIC50 [3, 9]: 0.5 µg/mL (≈ 1.48 µM)
MIC90 [3, 9]: 1 µg/mL (≈ 2.96 µM)
MIC range [3, 9]: 0.125 to 1 µg/mL
steady state AUC observed in humans [4]: 215 to 294 µg·h/mL
MIC [5]: 0.25 µg/mL

CC(=O)NC[C@H]1CN(c2ccc(N3CCSCC3)c(F)c2)C(=O)O1 [compound of formula (I), (S)—N-[[3-[3-fluoro-4-(4-thiomorpholinyl)phenyl]-2-oxo-5-oxazolidinyl]methyl]acetamide]
AUC0-24 ([1]; mouse, in vivo, po, 100 mg/kg): 8.74 µg·h/mL
Cmax ([1]; mouse, in vivo, po, 100 mg/kg): 4.32 µg/mL
AUC(0-t) ([1]; mouse, in vivo, po, 100 mg/kg, AUC0-24): 7.33 µg·h/mL
Cmax ([1]; mouse, in vivo, po, 100 mg/kg, Cmax): 6.07 µg/mL
in vivo potency relative to LZD ([2]; 25 mg/kg as active as LZD 130 mg/kg, AUC about 3-fold lower at 100 mg/kg): 12 times
log kill (reduction in mean lung CFU count compared to the baseline value) ([2]; 25 mg/kg, 28 days): 0.78 log10
mean spleen weight ([2]; 25 mg/kg, after 28 days of treatment, pre-treatment 105±11 mg, untreated 237±16 mg): 113 ± 17 mg
log kill (reduction in mean lung CFU count compared to the baseline value) ([2]; 50 mg/kg, 28 days): 2.21 log10
Mean log10 CFU count (± SD) on Day 28 ([2]; lung, 25 mg/kg once daily, 5 days per week by gavage, Day 0 7.49 ± 0.11): 6.71 ± 0.28 log10 CFU
Mean log10 CFU count (± SD) on Day 28 ([2]; lung, 25 mg/kg twice daily, Day 0 7.49 ± 0.11): 5.51 ± 0.14 log10 CFU
Mean log10 CFU count (± SD) on Day 28 ([2]; lung, 50 mg/kg once daily, Day 0 7.49 ± 0.11, 50 mg/kg): 5.28
Mean log10 CFU count (± SD) on Day 28 ([2]; lung, 50 mg/kg once daily, Day 0 7.49 ± 0.11, listed as Compound of Formula (I), 50 mg/kg): 5.28 ± 0.53 log10 CFU
Mean log10 CFU count (± SD) on Day 28 ([2]; lung, 50 mg/kg twice daily, Day 0 7.49 ± 0.11): 4.89 ± 0.27 log10 CFU
Mean log10 CFU count (± SD) on Day 28 ([2]; lung, 100 mg/kg once daily, Day 0 7.49 ± 0.11): 5.07 ± 0.14 log10 CFU
MIC90 against M. tuberculosis ([3]; stated in the pharmacokinetics section (Barbachyn et al.)): 0.25 µg/mL
Lung log10 CFU counts (±SD) after treatment with the indicated regimen plus the compound of formula (I) 100 mg/kg/day, Day 28 [6, 10]: 4.72 ± 0.17 log10 CFU
Lung log10 CFU counts (±SD) after treatment with the indicated regimen plus the compound of formula (I) 100 mg/kg/day, Day 56 [6, 10]: 2.70 ± 0.29 log10 CFU
reduction in lung CFU counts from baseline over the first 28 days ([6]; monotherapy, compound of formula (I) 100, INH 25, RIF 10 mg/kg): 2.65 log10
Lung log10 CFU counts (±SD) after treatment with the indicated regimen, Day 28 [6, 11]: 4.72 log10 CFU
Lung log10 CFU counts (±SD) after treatment with the indicated regimen, Day 56 [6, 11]: 2.70 log10 CFU
Mean lung log10 CFU count (±) S.D. after 4 weeks of treatment with: Regimen + U 25 mg/kg (M. tuberculosis H37Rv; labelled drug PLUS U 25 mg/kg): 7.17 ± 0.23 log10 CFU
Mean lung log10 CFU count (±) S.D. after 4 weeks of treatment with: Regimen + U 100 mg/kg (M. tuberculosis H37Rv; labelled drug PLUS U 100 mg/kg, lower limit of detection 3.40): 5.40 ± 0.10 log10 CFU
CFU Count 8 weeks ([7]; 4 weeks RHZU100 then 4 weeks with U 6.25 mg/kg (alone or with R)): 4.93 ± 0.32
CFU Count 8 weeks ([7]; 4 weeks RHZU100 then 4 weeks with U 12.5 mg/kg (alone or with R)): 5.30 ± 0.08
CFU Count 8 weeks ([7]; 4 weeks RHZU100 then 4 weeks with U 25 mg/kg (alone or with R)): 5.27 ± 0.20
CFU Count 8 weeks ([7]; 4 weeks RHZU100 then 4 weeks with U 50 mg/kg (alone or with R)): 4.59 ± 0.28
CFU Count 8 weeks ([7]; 4 weeks RHZU100 then 4 weeks with U 100 mg/kg (alone or with R)): 3.86 ± 0.53
CFU Count 8 weeks ([7]; 4 weeks RHZU100 then 4 weeks with U 160 mg/kg (alone or with R)): 2.90 ± 0.32
MIC [5]: 0.25 µg/mL
effect of U monotherapy against persisting tubercle bacilli ([8]; 12.5 mg/kg): growth-inhibitory effect
effect of U monotherapy against persisting tubercle bacilli ([8]; 25 mg/kg): bacteriostatic effect
log reduction with U monotherapy against persisting tubercle bacilli ([8]; 50 mg/kg): > 0.5 log
log reduction with U monotherapy against persisting tubercle bacilli ([8]; 100 mg/kg): > 1 log
log reduction with U monotherapy against persisting tubercle bacilli ([8]; 160 mg/kg): ~2 log
CFU-U only ([8]; 8 weeks: 4 weeks RHZU25 then 4 weeks U 12.5 mg/kg): 4.99 ± 0.19
CFU-U only ([8]; 8 weeks: 4 weeks RHZU25 then 4 weeks U 25 mg/kg): 4.26 ± 0.24
CFU-U only ([8]; 8 weeks: 4 weeks RHZU25 then 4 weeks U 50 mg/kg): 3.56 ± 0.15
CFU-U only ([8]; 8 weeks: 4 weeks RHZU25 then 4 weeks U 50 mg/kg thrice weekly (3/7)): 4.21 ± 0.26
CFU-U only ([8]; 8 weeks: 4 weeks RHZU25 then 4 weeks U 100 mg/kg): 2.88 ± 0.34
CFU-U only ([8]; 8 weeks: 4 weeks RHZU25 then 4 weeks U 160 mg/kg): 2.42 ± 0.31
